Assay results published in patent publication US8877748B2, “Heterocyclic fused anthraquinone derivatives, manufacturing method and pharmaceutical composition using thereof” (National Defense Medical Center, priority 2012, dated 2014).

What was measured:
Assay type in all cases: cell-based, human
KM12 = assay: NCI one-dose screening, colon cancer KM12; details: 10 μM
NCl/ADR-RES = assay: NCI one-dose screening, breast cancer NCl/ADR-RES; details: 10 μM; listed under Ovarian cancer
NCI-H522 = assay: NCI one-dose screening, non-small cell lung cancer NCI-H522; details: 10 μM
OVCAR-4 = assay: NCI one-dose screening, ovarian cancer OVCAR-4; details: 10 μM
HCT-15 = assay: NCI one-dose screening, colon cancer HCT-15; details: 10 μM
SF-539 = assay: NCI one-dose screening, CNS cancer SF-539; details: 10 μM
EKVX = assay: NCI one-dose screening, non-small cell lung cancer EKVX; details: 10 μM
K562cell line = assay: NCI one-dose screening, leukemia K562; details: 10 μM
SK-MEL-28 = assay: NCI one-dose screening, melanoma SK-MEL-28; details: 10 μM
SNB-19 = assay: NCI one-dose screening, CNS cancer SNB-19; details: 10 μM
SF-268 = assay: NCI one-dose screening, CNS cancer SF-268; details: 10 μM
CAKI-1 = assay: NCI one-dose screening, renal cancer CAKI-1; details: 10 μM
PRMI-8226 cell line = assay: NCI one-dose screening, leukemia PRMI-8226; details: 10 μM
MDA, -MB-435 = assay: NCI one-dose screening, breast cancer MDA, -MB-435; details: 10 μM; listed under Melanoma
CCRF-CEM = assay: NCI screening platform one-dose single concentration screening, leukemia CCRF-CEM; details: 10 μM
786-O = assay: NCI one-dose screening, renal cancer 786-O; details: 10 μM
SK-MEL-2 = assay: NCI one-dose screening, melanoma SK-MEL-2; details: 10 μM
[1] = test system: PC-3 prostate cancer cell line; assay: SRB assay cell viability, PC-3 prostate cancer cell line; details: Homo sapiens, PC-3 prostate cancer cell line, Table II prints no unit, μM printed, read-out: SRB assay: 50% inhibition of cancer cell proliferation of sample concentration (IC50) of PC-3 prostate cancer cell line
HL-60, TB = assay: NCI one-dose screening, leukemia HL-60, TB; details: 10 μM
OVCAR-5 = assay: NCI one-dose screening, ovarian cancer OVCAR-5; details: 10 μM
LOX IMVI = assay: NCI one-dose screening, melanoma LOX IMVI; details: 10 μM
A549/ATCC = assay: NCI one-dose screening, non-small cell lung cancer A549/ATCC; details: 10 μM
U251 = assay: NCI one-dose screening, CNS cancer U251; details: 10 μM
NCI-H23 = assay: NCI one-dose screening, non-small cell lung cancer NCI-H23; details: 10 μM
SK-MEL-5 = assay: NCI one-dose screening, melanoma SK-MEL-5; details: 10 μM
OVCAR-8 = assay: NCI one-dose screening, ovarian cancer OVCAR-8; details: 10 μM
MALME-3M = assay: NCI one-dose screening, melanoma MALME-3M; details: 10 μM
OVCAR-3 = assay: NCI one-dose screening, ovarian cancer OVCAR-3; details: 10 μM
SNB-75 = assay: NCI one-dose screening, CNS cancer SNB-75; details: 10 μM
SN12C = assay: NCI one-dose screening, renal cancer SN12C; details: 10 μM
TK-10 = assay: NCI one-dose screening, renal cancer TK-10; details: 10 μM
IGROV1 = assay: NCI one-dose screening, ovarian cancer IGROV1; details: 10 μM
MOLT-4 = assay: NCI one-dose screening, leukemia MOLT-4; details: 10 μM
ACHN = assay: NCI one-dose screening, renal cancer ACHN; details: 10 μM
HCC-2998 = assay: NCI one-dose screening, colon cancer HCC-2998; details: 10 μM
SR = assay: NCI one-dose screening, leukemia SR; details: 10 μM
RXF, 393 = assay: NCI one-dose screening, renal cancer RXF, 393; details: 10 μM
NCI-H226 = assay: NCI one-dose screening, non-small cell lung cancer NCI-H226; details: 10 μM
COLO 205 = assay: NCI one-dose screening, colon cancer COLO 205; details: 10 μM
HCT-116 = assay: NCI one-dose screening, colon cancer HCT-116; details: 10 μM
NCI-H460 = assay: NCI one-dose screening, non-small cell lung cancer NCI-H460; details: 10 μM
UACC-257 = assay: NCI one-dose screening, melanoma UACC-257; details: 10 μM
HT29 = assay: NCI one-dose screening, colon cancer HT29; details: 10 μM
M14 = assay: NCI one-dose screening, melanoma M14; details: 10 μM
SF-295 = assay: NCI one-dose screening, CNS cancer SF-295; details: 10 μM
HOP-62 = assay: NCI one-dose screening, non-small cell lung cancer HOP-62; details: 10 μM
NCI-H322M = assay: NCI one-dose screening, non-small cell lung cancer NCI-H322M; details: 10 μM; Non-small cell lung cancer
UACC-62 = assay: NCI one-dose screening, melanoma UACC-62; details: 10 μM

Compound: Cc1cccc(C)c1Sc1cc2c(c3nsnc13)C(=O)c1ccccc1C2=O [C55, 4-(2,6-dimethylphenylthio)anthra[2,1-c] [1,2,5]thiadiazol-6,11-dione]
- Growth Percent KM12 (KM12): 95.96%
- Growth Percent NCI/ADR-RES (NCl/ADR-RES): 59.68%
- Growth Percent NCI-H522 (NCI-H522): 61.39%
- Growth Percent OVCAR-4 (OVCAR-4): 4.00%
- Growth Percent HCT-15 (HCT-15): 47.54%
- Growth Percent SF-539 (SF-539): 84.51%
- Growth Percent EKVX (EKVX): 82.44%
- Growth Percent K562 (K562cell line): 43.14%
- Growth Percent SK-MEL-28 (SK-MEL-28): 89.33%
- Growth Percent SNB-19 (SNB-19): 94.75%
- Growth Percent SF-268 (SF-268): 79.48%
- Growth Percent CAKI-1 (CAKI-1): 61.03%
- Growth Percent RPMI-8226 (PRMI-8226 cell line): 55.63%
- Growth Percent MDA-MB-435 (MDA, -MB-435): 96.77%
- Growth Percent CCRF-CEM (CCRF-CEM): 34.84%
- Growth Percent 786-0 (786-O): 115.19%
- Growth Percent SK-MEL-2 (SK-MEL-2): 67.54%
- IC50 [1]: 6.74 µM
- Growth Percent HL-60(TB) (HL-60, TB): 47.83%
- Growth Percent OVCAR-5 (OVCAR-5): 113.96%
- Growth Percent LOX IMVI (LOX IMVI): 44.61%
- Growth Percent A549/ATCC (A549/ATCC): 90.16%
- Growth Percent U251 (U251): 53.94%
- Growth Percent NCI-H23 (NCI-H23): 67.37%
- Growth Percent SK-MEL-5 (SK-MEL-5): 70.23%
- Growth Percent OVCAR-8 (OVCAR-8): 58.98%
- Growth Percent MALME-3M (MALME-3M): 73.72%
- Growth Percent OVCAR-3 (OVCAR-3): 1.00%
- Growth Percent SNB-75 (SNB-75): 69.38%
- Growth Percent SN12C (SN12C): 67.67%
- Growth Percent TK-10 (TK-10): 119.41%
- Growth Percent IGROV1 (IGROV1): 66.38%
- Growth Percent MOLT-4 (MOLT-4): 32.64%
- Growth Percent ACHN (ACHN): 83.18%
- Growth Percent HCC-2998 (HCC-2998): 100.96%
- Growth Percent SR (SR): 35.52%
- Growth Percent RXF 393 (RXF, 393): 76.16%
- Growth Percent NCI-H226 (NCI-H226): 78.31%
- Growth Percent COLO 205 (COLO 205): 98.76%
- Growth Percent HCT-116 (HCT-116): 64.99%
- Growth Percent NCI-H460 (NCI-H460): 87.37%
- Growth Percent UACC-257 (UACC-257): 86.57%
- Growth Percent HT29 (HT29): 97.73%
- Growth Percent M14 (M14): 121.55%
- Growth Percent SF-295 (SF-295): 91.11%
- Growth Percent HOP-62 (HOP-62): 90.01%
- Growth Percent NCI-H322M (NCI-H322M): 83.83%
- Growth Percent UACC-62 (UACC-62): 91.72%

Compound: O=C1c2ccccc2C(=O)c2c1cc(Nc1ccc(Cl)cc1F)c1nsnc21 [C65, 4-(4-chloro-2-fluoro-phenylamino)anthra [2,1-c][1,2,5]thiadiazol-6,11-dione]
- Growth Percent KM12 (KM12): 83.42%
- Growth Percent NCI/ADR-RES (NCl/ADR-RES): 48.31%
- Growth Percent NCI-H522 (NCI-H522): 47.67%
- Growth Percent OVCAR-4 (OVCAR-4): −4.36%
- Growth Percent HCT-15 (HCT-15): 45.61%
- Growth Percent SF-539 (SF-539): 75.99%
- Growth Percent EKVX (EKVX): 80.90%
- Growth Percent K562 (K562cell line): 35.29%
- Growth Percent SK-MEL-28 (SK-MEL-28): 87.69%
- Growth Percent SNB-19 (SNB-19): 94.57%
- Growth Percent SF-268 (SF-268): 69.25%
- Growth Percent CAKI-1 (CAKI-1): 72.65%
- Growth Percent RPMI-8226 (PRMI-8226 cell line): 40.73%
- Growth Percent MDA-MB-435 (MDA, -MB-435): 27.37%
- Growth Percent CCRF-CEM (CCRF-CEM): 29.84%
- Growth Percent 786-0 (786-O): 114.97%
- Growth Percent SK-MEL-2 (SK-MEL-2): 72.52%
- IC50 [1]: > 15 µM
- Growth Percent HL-60(TB) (HL-60, TB): 8.17%
- Growth Percent OVCAR-5 (OVCAR-5): 114.60%
- Growth Percent LOX IMVI (LOX IMVI): 29.97%
- Growth Percent A549/ATCC (A549/ATCC): 69.22%
- Growth Percent U251 (U251): 43.08%
- Growth Percent NCI-H23 (NCI-H23): 53.59%
- Growth Percent SK-MEL-5 (SK-MEL-5): 49.49%
- Growth Percent OVCAR-8 (OVCAR-8): 36.77%
- Growth Percent MALME-3M (MALME-3M): 58.74%
- Growth Percent OVCAR-3 (OVCAR-3): 10.25%
- Growth Percent SNB-75 (SNB-75): 83.19%
- Growth Percent SN12C (SN12C): 86.43%
- Growth Percent TK-10 (TK-10): 110.93%
- Growth Percent IGROV1 (IGROV1): 69.50%
- Growth Percent MOLT-4 (MOLT-4): 20.18%
- Growth Percent ACHN (ACHN): 74.11%
- Growth Percent HCC-2998 (HCC-2998): 97.85%
- Growth Percent SR (SR): 23.58%
- Growth Percent RXF 393 (RXF, 393): 66.49%
- Growth Percent NCI-H226 (NCI-H226): 74.35%
- Growth Percent COLO 205 (COLO 205): 90.97%
- Growth Percent HCT-116 (HCT-116): 52.51%
- Growth Percent NCI-H460 (NCI-H460): 81.55%
- Growth Percent UACC-257 (UACC-257): 50.45%
- Growth Percent HT29 (HT29): 98.33%
- Growth Percent M14 (M14): 118.36%
- Growth Percent SF-295 (SF-295): 86.04%
- Growth Percent HOP-62 (HOP-62): 79.67%
- Growth Percent NCI-H322M (NCI-H322M): 91.66%
- Growth Percent UACC-62 (UACC-62): 85.80%
